Here are results for eight compounds from BindingDB's records for doi:10.1021/jm301022v (F. Hoffmann-La Roche, 2012).

The nature of the experiment: Antagonist activity at LPA1 in human lung fibroblasts assessed as inhibition of LPA-induced contraction after 18 hrs by 3D collagen gel contraction assay.

On to `C[C@@H](OC(=O)Nc1c(-c2ccc(C3CCC(CC(=O)O)CC3)cc2)nnn1C)c1ccccc1` (stereo partly drawn), for which the IC50 (commonly the concentration at which inhibition is half-maximal) is 220 nM.

Turning to `C[C@@H](OC(=O)Nc1c(-c2ccc(-c3ccc(CC(=O)O)cc3)cc2)nnn1C)c1ccccc1`, the IC50 was determined as 390 nM.

Turning to `C[C@@H](OC(=O)Nc1c(-c2ccc(-c3ccc(C4(C(=O)O)CC4)cc3)cc2)nnn1C)c1cccc(C(F)(F)F)c1`, the IC50 was determined as 340 nM.

With `C[C@@H](OC(=O)Nc1c(-c2ccc(-c3ccc(C4(C(=O)O)CC4)cc3)cc2F)nnn1C)c1ccccc1`, the IC50 amounted to 20 nM.

Consider `Cc1noc(-c2ccc(CSCCC(=O)O)cc2)c1NC(=O)OC(C)c1ccccc1Cl` (stereo not drawn) [3-(4-(4-((1-(2-chlorophenyl)ethoxy)carbonylamino)-3-methylisoxazol-5-yl)benzylthio)propanoic acid], for which the IC50 is 160 nM. The result for `C[C@@H](OC(=O)Nc1c(-c2ccc(-c3ccc(C4(C(=O)O)CC4)cc3)cc2)nnn1C)c1ccccc1` reads 20 nM; that for `Cc1nnn(-c2ccc(-c3ccc(C4(C(=O)O)CC4)cc3)cc2)c1NC(=O)O[C@H](C)c1ccccc1`, 100 nM. Consider `Cc1noc(-c2ccc(-c3ccc(CC(=O)O)cc3)cc2)c1NC(=O)O[C@H](C)c1ccccc1`, for which the IC50 came to 150 nM.
